# Measurements as given in ChEMBL document CHEMBL4834431, “Design of Dimeric Bile Acid Derivatives as Potent and Selective Human NTCP Inhibitors” (J Med Chem, 2021).
# Activity calls are given as the source filed them. The calls are words filed in the database; no cut-off is given here.
# What was measured:
# [1] = system: Hepatitis B virus; assay: Antiviral activity against HBV infected in human HepG2-NTCP cells assessed as reduction in HBeAg secretion incubated for 24 hrs followed replacement with fresh medium and measured at day 5 post infection by ELISA; type: functional, organism-based
# [2] = Stability in mouse liver microsomes assessed as half life at 1 uM preincubated for 5 mins followed by NADPH addition and measured upto 60 mins by LC-MS analysis; type: ADME, Microsome; conditions: time 65 min
# [3] = Stability in mouse liver microsomes assessed as intrinsic clearance at 1 uM preincubated for 5 mins followed by NADPH addition and measured upto 60 mins by LC-MS analysis; type: ADME, Microsome; conditions: time 65 min, read-out: CLH
# [4] = target: T1, Hepatic sodium/bile acid cotransporter (Homo sapiens, UniProt Q14973); assay: Inhibition of human NTCP-mediated [3H]-TCA uptake expressed in human HepG2 cells in presence of 20 % FBS; type: cell-based
# T1 sequence (Q14973 whole entry): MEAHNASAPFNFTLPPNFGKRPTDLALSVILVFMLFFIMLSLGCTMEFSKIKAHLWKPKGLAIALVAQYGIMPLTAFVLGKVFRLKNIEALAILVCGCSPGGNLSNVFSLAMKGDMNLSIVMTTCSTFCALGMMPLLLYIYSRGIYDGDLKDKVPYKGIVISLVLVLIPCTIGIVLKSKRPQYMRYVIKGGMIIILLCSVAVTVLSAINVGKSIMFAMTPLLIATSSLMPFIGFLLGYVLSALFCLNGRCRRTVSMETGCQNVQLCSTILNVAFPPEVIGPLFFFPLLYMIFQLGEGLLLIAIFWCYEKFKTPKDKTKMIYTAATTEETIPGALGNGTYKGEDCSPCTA
# [5] = target: T1, Hepatic sodium/bile acid cotransporter; assay: Inhibition of human NTCP-mediated [3H]-TCA uptake expressed in human HepG2 cells in presence of 50 % FBS; type: cell-based
# [6] = target: T1, Hepatic sodium/bile acid cotransporter; assay: Inhibition of human NTCP-mediated [3H]-TCA uptake expressed in human HepG2 cells pretreated for 2 hrs followed by [3H]-TCA addition in absence of FBS; type: cell-based
# [7] = Plasma protein binding in human; type: ADME, cell-free; conditions: read-out: PPB
# [8] = Plasma protein binding in mouse; type: ADME, cell-free; conditions: read-out: PPB
# [9] = target: T1, Hepatic sodium/bile acid cotransporter; assay: Inhibition of human NTCP-mediated [3H]-TCA uptake expressed in human HepG2 cells in presence of human serum; type: cell-based
# [10] = system: HepG2; assay: Inhibition of human NTCP-mediated [3H]-TCA uptake expressed in human HepG2 cells in presence of bovine serum; type: cell-based; conditions: Bos taurus
# [11] = target: T2, Hepatic sodium/bile acid cotransporter (Mus musculus, UniProt O08705); assay: Inhibition of mouse NTCP-mediated [3H]-TCA uptake expressed in human HepG2 cells in presence of human serum; type: cell-based
# T2 sequence (O08705 whole entry): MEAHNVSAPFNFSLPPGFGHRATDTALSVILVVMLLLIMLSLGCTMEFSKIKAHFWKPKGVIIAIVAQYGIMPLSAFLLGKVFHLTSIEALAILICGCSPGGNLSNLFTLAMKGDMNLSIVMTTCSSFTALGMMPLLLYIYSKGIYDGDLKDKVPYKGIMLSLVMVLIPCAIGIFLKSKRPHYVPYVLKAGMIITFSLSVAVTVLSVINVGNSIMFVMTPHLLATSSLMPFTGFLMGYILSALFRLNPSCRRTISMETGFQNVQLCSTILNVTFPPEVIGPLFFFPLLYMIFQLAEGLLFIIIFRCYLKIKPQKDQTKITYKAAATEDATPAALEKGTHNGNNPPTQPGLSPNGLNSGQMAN
# [12] = target: T2, Hepatic sodium/bile acid cotransporter; assay: Inhibition of mouse NTCP-mediated [3H]-TCA uptake expressed in human HepG2 cells in presence of mouse serum; type: cell-based
# [13] = Stability in human liver microsomes assessed as half life at 1 uM preincubated for 5 mins followed by NADPH addition and measured upto 60 mins by LC-MS analysis; type: ADME, Microsome; conditions: time 65 min
# [14] = Stability in human liver microsomes assessed as intrinsic clearance at 1 uM preincubated for 5 mins followed by NADPH addition and measured upto 60 mins by LC-MS analysis; type: ADME, Microsome; conditions: time 65 min, read-out: CLH
# [15] = Half life in ip dosed C57B/L mouse by LC/MS analysis; type: ADME, organism-based; conditions: in vivo
# [16] = Bioavailability in ip dosed C57B/L mouse by LC/MS analysis; type: ADME, organism-based; conditions: in vivo
# [17] = Oral bioavailability in C57B/L mouse by LC/MS analysis; type: ADME, organism-based; conditions: in vivo
# [18] = system: Mus musculus; assay: Effect on human NTCP knock-in C57B/L mouse assessed as increase in total bile acid level at 50 mg/kg, ip administered twice daily for 3 days; type: functional, organism-based; conditions: time 3.0 day
# [19] = system: Mus musculus; assay: Effect on wild-type C57B/L mouse assessed as increase in total bile acid level at 50 mg/kg, ip administered twice daily for 3 days; type: functional, organism-based; conditions: time 3.0 day
# [20] = Toxicity in C57B/L mouse assessed as effect on ALT level at 50 mg/kg, ip administered twice daily for 3 days; type: organism-based; conditions: in vivo, 72 h, time 3 day
# [21] = Toxicity in C57B/L mouse assessed as effect on body weight at 50 mg/kg, ip administered twice daily for 3 days; type: organism-based; conditions: in vivo, 72 h, time 3 day
compound,measurement,setting,value
C[C@@H]1CCC(=O)NC(C(=O)NCCS(=O)(=O)O)CNC(=O)CC[C@@H](C)[C@H]2CC[C@H]3[C@@H]4[C@@H](O)C[C@@H]5C[C@@H](CC[C@]5(C)[C@H]4CC[C@]23C)n2cc(nn2)CO[C@@H]2CC[C@@]3(C)[C@@H](C2)C[C@H](O)[C@@H]2[C@@H]3CC[C@]3(C)[C@@H]1CC[C@@H]23 (stereo partly specified),IC50,[1],178 nM
same,half-life at 1 µM,[2],0.929 h
same,microsomal CLint at 1 µM,[3],12 µL/min/mg
same,IC50,[4],54 nM
same,IC50,[5],81.5 nM
same,IC50,[6],23.5 nM
same,fraction unbound,[7],0.01
same,fraction unbound,[8],0.01
same,inhibition (INH),[9],Active
same,inhibition,[10],Active
same,inhibition (INH),[11],Not Active
same,inhibition (INH),[12],Not Active
same,half-life at 1 µM,[13],1.89 h
same,microsomal CLint at 1 µM,[14],6.1 µL/min/mg
same,half-life,[15],1.6 h
same,bioavailability,[16],32%
same,bioavailability,[17],1.3%
same,Activity,[18],Active
same,Activity,[19],inactive
same,Activity,[20],Non-Toxic
same,Activity,[21],Non-Toxic
